Converted amounts (≈) assume the structure as drawn.
Assays:
Type in all cases: functional
[1] = test system: Staphylococcus aureus; assay: Antimicrobial activity against methicillin-resistant Staphylococcus aureus clinical isolate after 18 to 22 hrs by broth microdilution method
[2] = test system: Staphylococcus aureus; assay: Antimicrobial activity against methicillin-susceptible Staphylococcus aureus clinical isolate after 18 to 22 hrs by broth microdilution method
[3] = test system: Staphylococcus epidermidis; assay: Antimicrobial activity against methicillin-resistant Staphylococcus epidermidis clinical isolate after 18 to 22 hrs by broth microdilution method
[4] = test system: Staphylococcus epidermidis; assay: Antimicrobial activity against methicillin-susceptible Staphylococcus epidermidis clinical isolate after 18 to 22 hrs by broth microdilution method
[5] = test system: Staphylococcus haemolyticus; assay: Antimicrobial activity against Staphylococcus haemolyticus clinical isolate after 18 to 22 hrs by broth microdilution method
[6] = test system: Enterococcus faecalis; assay: Antimicrobial activity against Enterococcus faecalis clinical isolate after 18 to 22 hrs by broth microdilution method
[7] = test system: Enterococcus faecium; assay: Antimicrobial activity against Enterococcus faecium clinical isolate after 18 to 22 hrs by broth microdilution method
[8] = test system: Enterococcus faecalis; assay: Antimicrobial activity against vancomycin-resistant Enterococcus faecalis clinical isolate after 18 to 22 hrs by broth microdilution method
[9] = test system: Enterococcus faecium; assay: Antimicrobial activity against vancomycin-resistant Enterococcus faecium clinical isolate after 18 to 22 hrs by broth microdilution method
[10] = test system: Enterococcus avium; assay: Antimicrobial activity against Enterococcus avium clinical isolate after 18 to 22 hrs by broth microdilution method
[11] = test system: Streptococcus pneumoniae; assay: Antimicrobial activity against penicillin-susceptible Streptococcus pneumoniae clinical isolate after 18 to 22 hrs by broth microdilution method
[12] = test system: Streptococcus pneumoniae; assay: Antimicrobial activity against penicillin-intermediate Streptococcus pneumoniae clinical isolate after 18 to 22 hrs by broth microdilution method
[13] = test system: Streptococcus pneumoniae; assay: Antimicrobial activity against penicillin-resistant Streptococcus pneumoniae clinical isolate after 18 to 22 hrs by broth microdilution method
[14] = test system: Streptococcus pyogenes; assay: Antimicrobial activity against Streptococcus pyogenes clinical isolate after 18 to 22 hrs by broth microdilution method
[15] = test system: Enterococcus casseliflavus; assay: Antimicrobial activity against Enterococcus casseliflavus clinical isolate after 18 to 22 hrs by broth microdilution method
[16] = test system: Enterococcus durans; assay: Antimicrobial activity against Enterococcus durans clinical isolate after 18 to 22 hrs by broth microdilution method
[17] = test system: Enterococcus gallinarum; assay: Antimicrobial activity against Enterococcus gallinarum clinical isolate after 18 to 22 hrs by broth microdilution method
[18] = test system: Enterococcus hirae; assay: Antimicrobial activity against Enterococcus hirae clinical isolate after 18 to 22 hrs by broth microdilution method
[19] = test system: Streptococcus agalactiae; assay: Antimicrobial activity against Streptococcus agalactiae clinical isolate after 18 to 22 hrs by broth microdilution method

For `CC(=O)NC[C@H]1CN(c2ccc(N3CCOCC3)c(F)c2)C(=O)O1` [LINEZOLID], the MIC50 [1] was 2 µg/mL (≈ 5.93 µM), the MIC90 [1] was 4 µg/mL (≈ 11.9 µM) and the MIC50 [2] was 4 µg/mL (≈ 11.9 µM). For the same compound, the MIC90 [2] was 4 µg/mL (≈ 11.9 µM), the MIC [3] was 1 µg/mL (≈ 2.96 µM) and the MIC50 [3] was 1 µg/mL (≈ 2.96 µM). It also gave an MIC90 [3] of 2 µg/mL (≈ 5.93 µM), an MIC [4] of 1 µg/mL (≈ 2.96 µM) and an MIC50 [4] of 1 µg/mL (≈ 2.96 µM). The MIC90 [4] was 2 µg/mL (≈ 5.93 µM), the MIC [5] was 1 µg/mL (≈ 2.96 µM) and the MIC50 [5] was 1 µg/mL (≈ 2.96 µM). It also gave an MIC90 [5] of 2 µg/mL (≈ 5.93 µM), an MIC50 [6] of 2 µg/mL (≈ 5.93 µM) and an MIC90 [6] of 2 µg/mL (≈ 5.93 µM). For the same compound, the MIC50 [7] was 2 µg/mL (≈ 5.93 µM), the MIC90 [7] was 2 µg/mL (≈ 5.93 µM) and the MIC50 [8] was 2 µg/mL (≈ 5.93 µM). It also gave an MIC90 [8] of 2 µg/mL (≈ 5.93 µM), an MIC50 [9] of 2 µg/mL (≈ 5.93 µM) and an MIC90 [9] of 2 µg/mL (≈ 5.93 µM). For the same compound, the MIC50 [10] was 2 µg/mL (≈ 5.93 µM), the MIC90 [10] was 2 µg/mL (≈ 5.93 µM) and the MIC50 [11] was 0.5 µg/mL (≈ 1.48 µM). It also gave an MIC90 [11] of 1 µg/mL (≈ 2.96 µM), an MIC50 [12] of 0.5 µg/mL (≈ 1.48 µM) and an MIC90 [12] of 1 µg/mL (≈ 2.96 µM). The MIC50 [13] was 1 µg/mL (≈ 2.96 µM), the MIC90 [13] was 1 µg/mL (≈ 2.96 µM) and the MIC50 [14] was 1 µg/mL (≈ 2.96 µM). For the same compound, the MIC90 [14] was 1 µg/mL (≈ 2.96 µM), the MIC50 [15] was 2 µg/mL (≈ 5.93 µM) and the MIC90 [15] was 2 µg/mL (≈ 5.93 µM). For the same compound, the MIC50 [16] was 2 µg/mL (≈ 5.93 µM), the MIC90 [16] was 2 µg/mL (≈ 5.93 µM) and the MIC50 [17] was 2 µg/mL (≈ 5.93 µM). For the same compound, the MIC90 [17] was 2 µg/mL (≈ 5.93 µM), the MIC50 [18] was 2 µg/mL (≈ 5.93 µM) and the MIC90 [18] was 2 µg/mL (≈ 5.93 µM). For the same compound, the MIC50 [19] was 1 µg/mL (≈ 2.96 µM) and the MIC90 [19] was 2 µg/mL (≈ 5.93 µM).
For `CN[C@H](CC(C)C)C(=O)N[C@H]1C(=O)N[C@@H](CC(N)=O)C(=O)N[C@H]2C(=O)N[C@H]3C(=O)N[C@H](C(=O)N[C@H](C(=O)O)c4cc(O)cc(O)c4-c4cc3ccc4O)[C@H](O)c3ccc(c(Cl)c3)Oc3cc2cc(c3O[C@@H]2O[C@H](CO)[C@@H](O)[C@H](O)[C@H]2O[C@H]2C[C@](C)(N)[C@H](O)[C@H](C)O2)Oc2ccc(cc2Cl)[C@H]1O` [VANCOMYCIN], the MIC50 [1] was 1 µg/mL (≈ 0.69 µM), the MIC90 [1] was 1 µg/mL (≈ 0.69 µM) and the MIC50 [2] was 0.5 µg/mL (≈ 0.345 µM). For the same compound, the MIC90 [2] was 1 µg/mL (≈ 0.69 µM), the MIC50 [3] was 2 µg/mL (≈ 1.38 µM) and the MIC90 [3] was 2 µg/mL (≈ 1.38 µM). For the same compound, the MIC50 [4] was 1 µg/mL (≈ 0.69 µM), the MIC90 [4] was 1 µg/mL (≈ 0.69 µM) and the MIC50 [5] was 1 µg/mL (≈ 0.69 µM). For the same compound, the MIC90 [5] was 1 µg/mL (≈ 0.69 µM), the MIC50 [6] was 1 µg/mL (≈ 0.69 µM) and the MIC90 [6] was 2 µg/mL (≈ 1.38 µM). The MIC50 [7] was 0.5 µg/mL (≈ 0.345 µM), the MIC90 [7] was 1 µg/mL (≈ 0.69 µM) and the MIC50 [8] was > 32 µg/mL. For the same compound, the MIC90 [8] was > 32 µg/mL, the MIC [9] was > 32 µg/mL and the MIC50 [9] was > 32 µg/mL. The MIC90 [9] was > 32 µg/mL, the MIC [10] was 0.25 µg/mL (≈ 0.173 µM) and the MIC50 [10] was 0.25 µg/mL (≈ 0.173 µM). It also gave an MIC90 [10] of 0.5 µg/mL (≈ 0.345 µM), an MIC50 [11] of 0.12 µg/mL (≈ 0.0828 µM) and an MIC90 [11] of 0.25 µg/mL (≈ 0.173 µM). For the same compound, the MIC50 [12] was 0.25 µg/mL (≈ 0.173 µM), the MIC90 [12] was 0.25 µg/mL (≈ 0.173 µM) and the MIC50 [13] was 0.25 µg/mL (≈ 0.173 µM). It also gave an MIC90 [13] of 0.25 µg/mL (≈ 0.173 µM), an MIC50 [14] of 0.25 µg/mL (≈ 0.173 µM) and an MIC90 [14] of 0.25 µg/mL (≈ 0.173 µM). It also gave an MIC50 [15] of 0.5 µg/mL (≈ 0.345 µM), an MIC90 [15] of 4 µg/mL (≈ 2.76 µM) and an MIC50 [16] of 0.5 µg/mL (≈ 0.345 µM). It also gave an MIC90 [16] of 4 µg/mL (≈ 2.76 µM), an MIC50 [17] of 0.5 µg/mL (≈ 0.345 µM) and an MIC90 [17] of 4 µg/mL (≈ 2.76 µM). It also gave an MIC50 [18] of 0.5 µg/mL (≈ 0.345 µM), an MIC90 [18] of 4 µg/mL (≈ 2.76 µM) and an MIC [19] of 0.25 µg/mL (≈ 0.173 µM). For the same compound, the MIC50 [19] was 0.25 µg/mL (≈ 0.173 µM) and the MIC90 [19] was 0.5 µg/mL (≈ 0.345 µM).

— ChEMBL document CHEMBL1629583, “Establishment of in vitro susceptibility testing methodologies and comparative activities of piperacillin in combination with the penem {beta}-lactamase inhibitor BLI-489” (2009)
